From ChEMBL document CHEMBL3885881, “DrugMatrix”

Species on record: Rattus norvegicus
Experiment: DrugMatrix - Regimen: Daily Repeat
Type: toxicity, organism-based, Sprague-Dawley
Set-up: regimen Daily Repeat, gender Male, age 6-8 weeks
Details: in vivo, po, route oral GAVAGE, vehicle .5 % CMC; for URIC ACID / ALANINE AMINOTRANSFERASE / ALBUMIN / ALKALINE PHOSPHATASE / ASPARTATE AMINOTRANSFERASE / BLOOD UREA NITROGEN / CARBON DIOXIDE / CHLORIDE / CHOLESTEROL / CREATINE PHOSPHOKINASE / CREATININE / GLUCOSE / LACTATE DEHYDROGENASE / LIPASE / PHOSPHORUS / POTASSIUM / SODIUM / TOTAL BILIRUBIN / TOTAL PROTEIN: tissue Plasma; for ABSOLUTE BASOPHIL / ABSOLUTE EOSINOPHIL / ABSOLUTE LYMPHOCYTE / ABSOLUTE MONOCYTE / ABSOLUTE SEGMENTED NEUTROPHIL / BASOPHIL / EOSINOPHIL / ERYTHROCYTE COUNT / HEMATOCRIT / HEMOGLOBIN / LEUKOCYTE COUNT / LYMPHOCYTE / MEAN CORPUSCULAR HEMOGLOBIN / MEAN CORPUSCULAR HEMOGLOBIN CONCENTRATION / MONOCYTE / NEUTROPHIL / NUCLEATED RED BLOOD CELLS / PLATELET COUNT: tissue Blood
[1] = 10 mg/kg, 120 h, dose level Low, time 5 day
[2] = 269 mg/kg, 72 h, dose level High, time 3 day
[3] = 269 mg/kg, 120 h, dose level High, time 5 day

Compound: O=C1C(CC[S+]([O-])c2ccccc2)C(=O)N(c2ccccc2)N1c1ccccc1 (stereo unspecified) [SULFINPYRAZONE]
- URIC ACID (10 mg/kg, 72 h, dose level Low, time 3 day): 2 mg/dL
- ABSOLUTE BASOPHIL [1]: 0 CELLS/uL
- ABSOLUTE EOSINOPHIL [1]: 0 CELLS/uL
- ABSOLUTE LYMPHOCYTE [1]: 8238.33 CELLS/uL
- ABSOLUTE MONOCYTE [1]: 0 CELLS/uL
- ABSOLUTE SEGMENTED NEUTROPHIL [1]: 761.67 CELLS/uL
- BASOPHIL [1]: 0%
- EOSINOPHIL [1]: 0%
- ERYTHROCYTE COUNT [1]: 5.27 x10E6/uL
- HEMATOCRIT [1]: 33.27%
- HEMOGLOBIN [1]: 13.03 G/DL
- LEUKOCYTE COUNT [1]: 9 x10E3/uL
- LYMPHOCYTE [1]: 91.67%
- MEAN CORPUSCULAR HEMOGLOBIN [1]: 24.77 pg
- MEAN CORPUSCULAR HEMOGLOBIN CONCENTRATION [1]: 39.17 G/DL
- MONOCYTE [1]: 0%
- NEUTROPHIL [1]: 8.33%
- NUCLEATED RED BLOOD CELLS [1]: 0 /100WBC
- PLATELET COUNT [1]: 1182 x10E3/uL
- ALANINE AMINOTRANSFERASE [1]: 51.33 u/L
- ALBUMIN [1]: 4.23 G/DL
- ALKALINE PHOSPHATASE [1]: 307 u/L
- ASPARTATE AMINOTRANSFERASE [1]: 86.67 u/L
- BLOOD UREA NITROGEN [1]: 15.33 mg/dL
- CARBON DIOXIDE [1]: 30 mmol/L
- CHLORIDE [1]: 102 MEQ/L
- CHOLESTEROL [1]: 63.67 mg/dL
- CREATINE PHOSPHOKINASE [1]: 204 u/L
- CREATININE [1]: 0.19 mg/dL
- GLUCOSE [1]: 139.33 mg/dL
- LACTATE DEHYDROGENASE [1]: 126 u/L
- LIPASE [1]: 9 u/L
- PHOSPHORUS [1]: 11.67 mg/dL
- POTASSIUM [1]: 6.44 MEQ/L
- SODIUM [1]: 148.53 MEQ/L
- TOTAL BILIRUBIN [1]: 0.27 mg/dL
- TOTAL PROTEIN [1]: 6.3 G/DL
- URIC ACID [1]: 1 mg/dL
- ABSOLUTE BASOPHIL [2]: 0 CELLS/uL
- ABSOLUTE EOSINOPHIL [2]: 0 CELLS/uL
- ABSOLUTE LYMPHOCYTE [2]: 15229.67 CELLS/uL
- ABSOLUTE MONOCYTE [2]: 176.67 CELLS/uL
- ABSOLUTE SEGMENTED NEUTROPHIL [2]: 1627 CELLS/uL
- BASOPHIL [2]: 0%
- EOSINOPHIL [2]: 0%
- ERYTHROCYTE COUNT [2]: 4.48 x10E6/uL
- HEMATOCRIT [2]: 28.7%
- HEMOGLOBIN [2]: 11.63 G/DL
- LEUKOCYTE COUNT [2]: 17.03 x10E3/uL
- LYMPHOCYTE [2]: 89.67%
- MEAN CORPUSCULAR HEMOGLOBIN [2]: 26.03 pg
- MEAN CORPUSCULAR HEMOGLOBIN CONCENTRATION [2]: 40.6 G/DL
- MONOCYTE [2]: 1%
- NEUTROPHIL [2]: 9.33%
- NUCLEATED RED BLOOD CELLS [2]: 0 /100WBC
- PLATELET COUNT [2]: 1194 x10E3/uL
- ALBUMIN [2]: 3.87 G/DL
- ALKALINE PHOSPHATASE [2]: 319.33 u/L
- ASPARTATE AMINOTRANSFERASE [2]: 92.67 u/L
- BLOOD UREA NITROGEN [2]: 16 mg/dL
- CARBON DIOXIDE [2]: 21.33 mmol/L
- CHLORIDE [2]: 105.67 MEQ/L
- CHOLESTEROL [2]: 78.67 mg/dL
- CREATINE PHOSPHOKINASE [2]: 438 u/L
- CREATININE [2]: 0.18 mg/dL
- GLUCOSE [2]: 147 mg/dL
- LACTATE DEHYDROGENASE [2]: 291 u/L
- LIPASE [2]: 10.33 u/L
- PHOSPHORUS [2]: 11.97 mg/dL
- POTASSIUM [2]: 6.1 MEQ/L
- SODIUM [2]: 145.03 MEQ/L
- TOTAL BILIRUBIN [2]: 0.23 mg/dL
- TOTAL PROTEIN [2]: 5.5 G/DL
- URIC ACID [2]: 1.4 mg/dL
- ABSOLUTE BASOPHIL [3]: 0 CELLS/uL
- ABSOLUTE EOSINOPHIL [3]: 0 CELLS/uL
- ABSOLUTE LYMPHOCYTE [3]: 20046 CELLS/uL
- ABSOLUTE MONOCYTE [3]: 55 CELLS/uL
- ABSOLUTE SEGMENTED NEUTROPHIL [3]: 2899 CELLS/uL
- BASOPHIL [3]: 0%
- EOSINOPHIL [3]: 0%
- ERYTHROCYTE COUNT [3]: 5.28 x10E6/uL
- HEMATOCRIT [3]: 32.4%
- HEMOGLOBIN [3]: 13.17 G/DL
- LEUKOCYTE COUNT [3]: 23 x10E3/uL
- LYMPHOCYTE [3]: 87.33%
- MEAN CORPUSCULAR HEMOGLOBIN [3]: 24.9 pg
- MEAN CORPUSCULAR HEMOGLOBIN CONCENTRATION [3]: 40.63 G/DL
- MONOCYTE [3]: 0.33%
- NEUTROPHIL [3]: 12.33%
- NUCLEATED RED BLOOD CELLS [3]: 0 /100WBC
- PLATELET COUNT [3]: 1314.67 x10E3/uL
- ALANINE AMINOTRANSFERASE [3]: 59.33 u/L
- ALBUMIN [3]: 4.13 G/DL
- ALKALINE PHOSPHATASE [3]: 291.33 u/L
- ASPARTATE AMINOTRANSFERASE [3]: 70.33 u/L
- BLOOD UREA NITROGEN [3]: 15 mg/dL
- CARBON DIOXIDE [3]: 26.67 mmol/L
- CHLORIDE [3]: 102.33 MEQ/L
- CHOLESTEROL [3]: 77 mg/dL
- CREATINE PHOSPHOKINASE [3]: 224.33 u/L
- CREATININE [3]: 0.25 mg/dL
- GLUCOSE [3]: 143.67 mg/dL
- LACTATE DEHYDROGENASE [3]: 78.33 u/L
- LIPASE [3]: 9 u/L
- PHOSPHORUS [3]: 12.43 mg/dL
- POTASSIUM [3]: 6.73 MEQ/L
- SODIUM [3]: 147 MEQ/L
- TOTAL BILIRUBIN [3]: 0.23 mg/dL
- TOTAL PROTEIN [3]: 6 G/DL
- URIC ACID [3]: 1.53 mg/dL
